According to publication PMC10063609, “Discovery of novel cardiac troponin activators using fluorescence polarization-based high throughput screening assays” (Scientific Reports, 2023):
Counter-ions that a name gives are not always drawn.

Molecular target: interaction between cTnC and the anchoring region of cTnI (cTnIAR) (Homo sapiens, UniProt P63316)
Experiment: Fluorescence polarization HTS, binding and dose-response, cTnC/FAM-cTnIAR
Conditions: cTnIAR primary screen, TOCRIScreen library, single concentration 10 μmol/L

| Molecule | FP (mP) |
| --- | --- |
| Cc1ccc2[nH]c(=O)c(C3=NN(C(=O)CCC(=O)O)C(c4ccc(Br)cc4)C3)c(-c3ccccc3)c2c1 (stereo not shown) [DQP 1105] | 103 |
| CN(C)CCCn1cc(C2=C(c3c[nH]c4ccccc34)C(=O)NC2=O)c2ccccc21 [GF 109203X] | 104.5 |
| CCn1c(-c2nonc2N)nc2cnc(Oc3cccc(NC(=O)c4ccc(OCCN5CCOCC5)cc4)c3)cc21 [GSK 269962] | 104.8 |
| CCOc1cc(CC(=O)N[C@@H](CC(C)C)c2ccccc2N2CCCCC2)ccc1C(=O)O [Repaglinide] | 103.2 |
| CCN1CCN(C(=O)Cc2ccc(Nc3ncc(F)c(Nc4ccc(C(=O)Nc5ccccc5Cl)cc4)n3)cc2)CC1 [TC-S 7010] | 108.3 |
| CCCC[P+](CCCC)(CCCC)Cc1ccc(NC(=O)[C@H](Cc2ccc3ccccc3c2)NC(=NC2CCCCC2)NC2CCCCC2)cc1.Cl.[Cl-] [WIN 64338 hydrochloride] | 71 |

Tested on: CcTnC and cTnIAR interaction
Experiment: not given
Design: method as in PMID 11320096, PMID 10913289
Conditions: NMR spectroscopy; cited from earlier work

| Molecule | Effect on the CcTnC and cTnIAR interaction in vitro |
| --- | --- |
| COc1ccc(C(=O)N2CCCc3cc(C4=NNC(=O)SC4C)ccc32)cc1OC (stereo not shown) [EMD 57033] | no significant effect |

Tested on: CcTnC
Experiment: not given
Design: method as in PMID 11320096, PMID 10913289
Conditions: cited from earlier work

| Molecule | Affinity |
| --- | --- |
| COc1ccc(C(=O)N2CCCc3cc(C4=NNC(=O)SC4C)ccc32)cc1OC (stereo not shown) [EMD 57033] | micromolar affinity |

Tested on: bovine cardiac myofibrils
Experiment: NADH-coupled ATPase activity of isolated cardiac myofibrils
Format: biochemical
Conditions: submaximal calcium activation (~30% of maximum), pCa 6, up to 100 μmol/L

| Effect on ATPase activity of cardiac myofibrils | Molecule |
| --- | --- |
| no or little activation | CC(C)c1cccc(C(C)C)c1N1C(=O)c2ccc(O)cc2C1=O [5-HPP-33] |
| no or little activation | O=C(O)c1ccc(/C=C2\SC(=S)N(c3cccc(C(F)(F)F)c3)C2=O)cc1 [CFTR Inh172] |

| Molecule | Effect on ATPase activity of cardiac myofibrils |
| --- | --- |
| O=C(Nc1cccc(C(F)(F)F)c1)Nc1ccc(Br)cc1-c1nn[nH]n1 [NS3623] | significantly increased the ATPase activity |

Molecular target: T1, interaction between cTnC and switch peptide of cTnI (cTnISP) (Homo sapiens, UniProt P63316)
Experiment: Fluorescence polarization HTS and dose-response, cTnC/FAM-cTnISP
Format: binding
Conditions: not given

| FP (mP) | Molecule |
| --- | --- |
| 85.7 | (S)-(+)-Niguldipine hydrochloride |

Same assay, conditions: cTnISP primary screen, ENZO Screenwell library, single concentration 50 μmol/L

| FP (mP) | Molecule |
| --- | --- |
| 74.3 | CSc1ccc2c(c1)N(CCC1CCCCN1C)c1ccccc1S2 (stereo not shown) [Thioridazine.HCl] |
| 60.7 | CN(C)CCOc1ccc(/C(=C(/CCCl)c2ccccc2)c2ccccc2)cc1 [Toremifene Base] |

Same assay, conditions: cTnISP primary screen, LOPAC 1280 library, single concentration 50 μmol/L

| Molecule | FP (mP) |
| --- | --- |
| CC(C)c1cccc(C(C)C)c1N1C(=O)c2ccc(O)cc2C1=O [5-HPP-33] | 112 |
| CSc1ccc2c(c1)N(CCC1CCCCN1C)c1ccccc1S2 (stereo not shown) [Thioridazine.HCl] | 89.4 |
| BMS-189453 | 88.8 |

The remaining lines, values ahead:

| FP (mP) | Molecule |
| --- | --- |
| 84.5 | CN1CCN(CCCN2c3ccccc3Sc3ccc(C(F)(F)F)cc32)CC1 [Trifluoperazine dihydrochloride] |
| 86.4 | CCC(=O)Nc1cccc(Oc2nc(Nc3ccc(N4CCN(C)CC4)cc3OC)ncc2Cl)c1 [WZ4003] |
| 87.6 | OCCN1CCN(CC/C=C2/c3ccccc3Sc3ccc(C(F)(F)F)cc32)CC1 [cis-(Z)-Flupenthixol dihydrochloride] |

Same assay, conditions: cTnISP primary screen, TOCRIScreen library, single concentration 50 μmol/L

| Molecule | FP (mP) |
| --- | --- |
| O=C(O)c1ccc(/C=C2\SC(=S)N(c3cccc(C(F)(F)F)c3)C2=O)cc1 [CFTR Inh172] | 127.9 |
| CN(C)CCCn1cc(C2=C(c3c[nH]c4ccccc34)C(=O)NC2=O)c2ccccc21 [GF 109203X] | 82.4 |
| O=C(Nc1cccc(C(F)(F)F)c1)Nc1ccc(Br)cc1-c1nn[nH]n1 [NS3623] | 121.6 |
| COc1ccc(N(C(=O)Oc2c(C)cccc2C)c2ccnc(Nc3ccc(N4CCN(C)CC4)cc3)n2)c(OC)c1 [WH-4-023] | 56.3 |

Next, values leading:

| FP (mP) | Molecule |
| --- | --- |
| 80.5 | CCCc1cc(C)[nH]c(=O)c1CNC(=O)c1cc(-c2ccc(N3CCN(C(C)C)CC3)nc2)cc2c1cnn2C(C)C [UNC 1999] |
| 81.2 | COc1cc(N2CCN(C)CC2)ccc1Nc1ncc2c(n1)N(C)c1ccccc1C(=O)N2 [XMD 8-87] |
| 89.2 | COc1cc2c(Nc3ccc(NC(=O)c4ccccc4)cc3)ncnc2cc1OCCCN1CCOCC1 [ZM 447439] |

Same assay, conditions: dose-response, concentration dependent (Fig. 2a)

| Effect on FP from a mixture of FAM-cTnISP and cTnC | Molecule |
| --- | --- |
| increased the FP | CC(C)c1cccc(C(C)C)c1N1C(=O)c2ccc(O)cc2C1=O [5-HPP-33] |
| increased the FP | O=C(O)c1ccc(/C=C2\SC(=S)N(c3cccc(C(F)(F)F)c3)C2=O)cc1 [CFTR Inh172] |
| increased the FP | O=C(Nc1cccc(C(F)(F)F)c1)Nc1ccc(Br)cc1-c1nn[nH]n1 [NS3623] |

Molecular target: T1, interaction between cTnC and switch peptide of cTnI (cTnISP)
Experiment: not given
Design: method as in PMID 33315370
Conditions: printed in Fig. 1c; assay previously published; cited from earlier work

| Molecule | Kd [µM] |
| --- | --- |
| FAM-A162H-cTnISP: N-terminally FAM labelled A162H-mutated switch region peptide of human cardiac troponin I, sequence TLRRVRISADAMMQALLGARHKESLDLR | ~10 |
